Results: the supplement of paper PMC11208160

Experiment: recombinant UMI read abundance after kanamycin selection (control-corrected) (log10(CPM+1)); higher = more efficient recombination; extreme values may be limits of the assay; sequences stand for … in AGTGCAGAGAAAATCGGCCAGTTTTCTCTGCCTGCAGTCCGCATGCCGTGGGACCCCTTGGGTTCTAACCTGTTGCCTAGATTTATGCAGCGGACTGCCTTTCTCCCAAAGTGATAAACCGG…AGGTTGGTTTCACT; site = the 11-nt donor
Protocol: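 Pooled E. coli donor-specificity screen for the IS621 bridge recombinase. Each library member carries a reprogrammed 11-nt donor and a full-length LE bridge RNA expressed in cis from the natural promoter, with a paired donor-binding loop (8-nt LDG + 4-nt RDG) and a target-binding loop fixed to T5. It is co-electroporated with a T5 target plasmid; recombinase is induced with 0.07 mM IPTG and recombinants are selected on kanamycin. UMIs are counted as CPM, averaged over two biological replicates and corrected by the unselected control. Molecule = full bridge RNA written as DNA, built from the T5 scaffold: LDG = donor specificity nt 1-8, RDG = reverse complement of nt 8-11.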
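Note: IS621 bridge recombinase in Escherichia coli cells against a fixed T5 target plasmid.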

Which “recombinant UMI read abundance (log10)” value does the source give for “ATGTAGGCATGGACCGGTTTTCCCGGTAATCCGTATTTGGA (site ATGTAGGCTTC)” here?
Its value is 1.

Which “recombinant UMI read abundance (log10)” value does the source give for “TATGGCCCATGGACCGGTTTTCCCGGTAATCCGTATTTGAT (site TATGGCCCTAT)” here?
Its value is 0.0149.

For “GCCCACCCATGGACCGGTTTTCCCGGTAATCCGTATTTGTT (site GCCCACCCTAA)”, which “recombinant UMI read abundance (log10)” value is on record?
Its value is 0.051.

For “ACACGGACATGGACCGGTTTTCCCGGTAATCCGTATTTGTC (site ACACGAACTGA)”, which “recombinant UMI read abundance (log10)” value is on record?
Its value is 0.

With “ATAACGCCATGGACCGGTTTTCCCGGTAATCCGTATTTGAG (site ATAACGCCTCT)” as the sequence, how does the “recombinant UMI read abundance (log10)” value read?
Its value is 0.00694.

With “AGTTGGCCATGGACCGGTTTTCCCGGTAATCCGTATTTGGG (site AGTTGGCCTCC)” as the sequence, how does the “recombinant UMI read abundance (log10)” value read?
The value was 0.0248.

With “ATCCCTACATGGACCGGTTTTCCCGGTAATCCGTATTTGAG (site TTCCCTACTCT)” as the sequence, how does the “recombinant UMI read abundance (log10)” value read?
Its value is 0.854.

Which “recombinant UMI read abundance (log10)” value does the source give for “GCGACGCCATGGACCGGTTTTCCCGGTAATCCGTATTTGTA (site GCCACGCCTTA)” here?
The value was 0.0222.

For “ACATCCACATGGACCGGTTTTCCCGGTAATCCGTATTTGTG (site ACATCGACTCA)”, which “recombinant UMI read abundance (log10)” value is on record?
The value was 0.00941.

Which “recombinant UMI read abundance (log10)” value does the source give for “CACTCCTCATGGACCGGTTTTCCCGGTAATCCGTATTTGCA (site CACTCCTCTCG)” here?
The value was 1.09.

With “GCCACGCCATGGACCGGTTTTCCCGGTAATCCGTATTTGTG (site GCCACGCCTGA)” as the sequence, how does the “recombinant UMI read abundance (log10)” value read?
The value was 0.

With “TAGTCTTCATGGACCGGTTTTCCCGGTAATCCGTATTTGGT (site TAGTCTTCTAC)” as the sequence, how does the “recombinant UMI read abundance (log10)” value read?
The value was 0.376.

Which “recombinant UMI read abundance (log10)” value does the source give for “TGTACTACATGGACCGGTTTTCCCGGTAATCCGTATTTGGT (site TGTACTACTAC)” here?
The value was 0.00344.

For “CCCTAACCATGGACCGGTTTTCCCGGTAATCCGTATTTGCT (site CCCTAACCTAG)”, which “recombinant UMI read abundance (log10)” value is on record?
Its value is 0.

Which “recombinant UMI read abundance (log10)” value does the source give for “AACCACGCATGGACCGGTTTTCCCGGTAATCCGTATTTGGG (site AAGCACGCTCC)” here?
The value was 0.

With “CTACTAGCATGGACCGGTTTTCCCGGTAATCCGTATTTGAA (site CTACTAGCTTT)” as the sequence, how does the “recombinant UMI read abundance (log10)” value read?
Its value is 1.95.

Which “recombinant UMI read abundance (log10)” value does the source give for “AAGTCAACATGGACCGGTTTTCCCGGTAATCCGTATTTGTG (site AAGTCAACTCA)” here?
The value was 0.011.

Which “recombinant UMI read abundance (log10)” value does the source give for “CCGTTTGCATGGACCGGTTTTCCCGGTAATCCGTATTTGTG (site CCGTTGGCTCA)” here?
The value was 0.0153.

With “TGTACAACATGGACCGGTTTTCCCGGTAATCCGTATTTGCT (site TGTACAACTAG)” as the sequence, how does the “recombinant UMI read abundance (log10)” value read?
Its value is 0.836.

Which “recombinant UMI read abundance (log10)” value does the source give for “GAAGGGTCATGGACCGGTTTTCCCGGTAATCCGTATTTGTT (site GAAGGGTCTAA)” here?
Its value is 2.74.

For “CGATCATCATGGACCGGTTTTCCCGGTAATCCGTATTTGCT (site CGATGACCTAG)”, which “recombinant UMI read abundance (log10)” value is on record?
The value was 0.

For “GTTAGAACATGGACCGGTTTTCCCGGTAATCCGTATTTGGC (site GTTAGAACTGA)”, which “recombinant UMI read abundance (log10)” value is on record?
Its value is 0.

With “TTAAAGCCATGGACCGGTTTTCCCGGTAATCCGTATTTGGC (site TTAAAGCCTGC)” as the sequence, how does the “recombinant UMI read abundance (log10)” value read?
Its value is 0.

For “GCCCGCACATGGACCGGTTTTCCCGGTAATCCGTATTTGTG (site GCCCGCACTCA)”, which “recombinant UMI read abundance (log10)” value is on record?
Its value is 0.0672.

Which “recombinant UMI read abundance (log10)” value does the source give for “AGTTGCTCATGGACCGGTTTTCCCGGTAATCCGTATTTGAA (site AGTTGCTCTTT)” here?
Its value is 0.47.

Which “recombinant UMI read abundance (log10)” value does the source give for “CGATCCACATGGACCGGTTTTCCCGGTAATCCGTATTTGTT (site CGATCTACTAA)” here?
The value was 0.00733.

With “GCGTAAACATGGACCGGTTTTCCCGGTAATCCGTATTTGCT (site GCGGAAACTAG)” as the sequence, how does the “recombinant UMI read abundance (log10)” value read?
Its value is 0.309.

For “ACTACAACATGGACCGGTTTTCCCGGTAATCCGTATTTGAG (site ACTACAACTCT)”, which “recombinant UMI read abundance (log10)” value is on record?
Its value is 1.22.

With “CTTCTCTCATGGACCGGTTTTCCCGGTAATCCGTATTTGTA (site GTTCTCTCTTA)” as the sequence, how does the “recombinant UMI read abundance (log10)” value read?
Its value is 0.0236.

Which “recombinant UMI read abundance (log10)” value does the source give for “CAAACATCATGGACCGGTTTTCCCGGTAATCCGTATTTGCT (site CGATCATCTAG)” here?
The value was 0.

With “GGTACGTCATGGACCGGTTTTCCCGGTAATCCGTATTTGTA (site GGTACGTCTGA)” as the sequence, how does the “recombinant UMI read abundance (log10)” value read?
The value was 0.

Which “recombinant UMI read abundance (log10)” value does the source give for “CGGAATCCATGGACCGGTTTTCCCGGTAATCCGTATTTGTT (site CGGCATGCTAA)” here?
The value was 0.0214.

With “CACAAACCATGGACCGGTTTTCCCGGTAATCCGTATTTGGT (site TACAAACCTAC)” as the sequence, how does the “recombinant UMI read abundance (log10)” value read?
The value was 0.

Which “recombinant UMI read abundance (log10)” value does the source give for “CCTAATACATGGACCGGTTTTCCCGGTAATCCGTATTTGGT (site CCTAATACTTC)” here?
Its value is 0.

Which “recombinant UMI read abundance (log10)” value does the source give for “AACCGTCCATGGACCGGTTTTCCCGGTAATCCGTATTTGAT (site AACCGTCCTTT)” here?
Its value is 0.0201.

Which “recombinant UMI read abundance (log10)” value does the source give for “CGTTTAACATGGACCGGTTTTCCCGGTAATCCGTATTTGGC (site CGTTTAACTGC)” here?
The value was 0.793.

For “CGGGAGTCATGGACCGGTTTTCCCGGTAATCCGTATTTGCC (site CGGGAGTCTGT)”, which “recombinant UMI read abundance (log10)” value is on record?
The value was 1.75.

With “ACTAGAACATGGACCGGTTTTCCCGGTAATCCGTATTTGAA (site ACTAGAACTAT)” as the sequence, how does the “recombinant UMI read abundance (log10)” value read?
Its value is 0.

With “ACACGCACATGGACCGGTTTTCCCGGTAATCCGTATTTGTC (site ACACGAACTGA)” as the sequence, how does the “recombinant UMI read abundance (log10)” value read?
The value was 1.62.

Which “recombinant UMI read abundance (log10)” value does the source give for “CGTTAGACATGGACCGGTTTTCCCGGTAATCCGTATTTGAG (site CGTTAGACTGT)” here?
The value was 0.00425.

With “TTACGTTCATGGACCGGTTTTCCCGGTAATCCGTATTTGAG (site TTACGTTCTCT)” as the sequence, how does the “recombinant UMI read abundance (log10)” value read?
Its value is 1.76.

Which “recombinant UMI read abundance (log10)” value does the source give for “CCTTTAGCATGGACCGGTTTTCCCGGTAATCCGTATTTGTG (site CCATTAGCTCA)” here?
The value was 0.00718.

Which “recombinant UMI read abundance (log10)” value does the source give for “AGGTCATCATGGACCGGTTTTCCCGGTAATCCGTATTTGCT (site AGGTCATCTAG)” here?
Its value is 1.48.

With “TAAGAGACATGGACCGGTTTTCCCGGTAATCCGTATTTGCG (site TCAGAGACTCG)” as the sequence, how does the “recombinant UMI read abundance (log10)” value read?
Its value is 0.896.

With “AGAACTACATGGACCGGTTTTCCCGGTAATCCGTATTTGGG (site AGAACTACTCC)” as the sequence, how does the “recombinant UMI read abundance (log10)” value read?
The value was 0.434.

With “CACTCCTCATGGACCGGTTTTCCCGGTAATCCGTATTTGCC (site CACTCCACTGG)” as the sequence, how does the “recombinant UMI read abundance (log10)” value read?
The value was 0.838.

Which “recombinant UMI read abundance (log10)” value does the source give for “TCCTCCGCATGGACCGGTTTTCCCGGTAATCCGTATTTGCG (site TCCCCCGCTCG)” here?
Its value is 0.0138.

Which “recombinant UMI read abundance (log10)” value does the source give for “CGGAATCCATGGACCGGTTTTCCCGGTAATCCGTATTTGTT (site GAGAATCCTAA)” here?
The value was 0.00637.

Which “recombinant UMI read abundance (log10)” value does the source give for “TGTACCCCATGGACCGGTTTTCCCGGTAATCCGTATTTGTA (site TGTTCCCCTTA)” here?
The value was 0.00713.

With “CCCGACCCATGGACCGGTTTTCCCGGTAATCCGTATTTGAG (site CCCGACCCTCT)” as the sequence, how does the “recombinant UMI read abundance (log10)” value read?
Its value is 0.0182.

Which “recombinant UMI read abundance (log10)” value does the source give for “GACCTCACATGGACCGGTTTTCCCGGTAATCCGTATTTGAT (site GAACTCACTAT)” here?
Its value is 0.0127.

For “CGATCTTCATGGACCGGTTTTCCCGGTAATCCGTATTTGCT (site CGATCTTCTAG)”, which “recombinant UMI read abundance (log10)” value is on record?
The value was 0.601.

For “AGGAATCCATGGACCGGTTTTCCCGGTAATCCGTATTTGTT (site TGGAATCCTAA)”, which “recombinant UMI read abundance (log10)” value is on record?
The value was 0.

For “GGCAATCCATGGACCGGTTTTCCCGGTAATCCGTATTTGGA (site GGCAATCCTTA)”, which “recombinant UMI read abundance (log10)” value is on record?
The value was 0.

With “TACAGGCCATGGACCGGTTTTCCCGGTAATCCGTATTTGAC (site TACAGGCCTGT)” as the sequence, how does the “recombinant UMI read abundance (log10)” value read?
Its value is 0.

With “TCCACCGCATGGACCGGTTTTCCCGGTAATCCGTATTTGCG (site TCCTCCGCTCG)” as the sequence, how does the “recombinant UMI read abundance (log10)” value read?
Its value is 0.0203.

Which “recombinant UMI read abundance (log10)” value does the source give for “AATGAGACATGGACCGGTTTTCCCGGTAATCCGTATTTGGT (site ATTGAGACTAC)” here?
Its value is 0.678.
